Experimental data reported in patent publication US20040010038A1, “Propargylamino indan derivatives and propargylamino tetralin derivatives as brain-selective MAO inhibitors” (priority 2002, published 2004).
Where a name gives a salt, the structure may show the parent alone. Read-outs that look alike come from different tables or passages of the source.

What was measured:
MAO-A [1] = target: T1, MAO-A (Rattus norvegicus, UniProt P21396); test: Inhibition of MAO activity in vitro (5-HT as substrate); assay type: biochemical
T1 construct: The MAO enzyme source was a homogenate of rat brain in 0.3 M sucrose 1:20 w/v; from tissue; host or cells: rat brain homogenate
T1 sequence (P21396 1-526): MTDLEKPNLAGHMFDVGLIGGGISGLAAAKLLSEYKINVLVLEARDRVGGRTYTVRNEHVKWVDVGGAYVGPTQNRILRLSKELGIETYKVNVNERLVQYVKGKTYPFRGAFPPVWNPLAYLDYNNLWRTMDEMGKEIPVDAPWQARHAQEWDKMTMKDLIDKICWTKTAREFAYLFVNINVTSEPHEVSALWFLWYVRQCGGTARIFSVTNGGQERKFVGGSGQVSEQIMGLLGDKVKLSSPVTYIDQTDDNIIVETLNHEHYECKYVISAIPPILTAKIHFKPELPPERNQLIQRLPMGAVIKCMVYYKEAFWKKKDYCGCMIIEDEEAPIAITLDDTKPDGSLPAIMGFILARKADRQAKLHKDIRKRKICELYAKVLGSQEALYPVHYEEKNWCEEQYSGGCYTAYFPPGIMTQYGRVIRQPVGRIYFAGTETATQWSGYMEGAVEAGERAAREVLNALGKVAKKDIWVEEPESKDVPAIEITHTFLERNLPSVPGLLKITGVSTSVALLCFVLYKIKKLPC
Procedure: (§1) Inhibition of MAO Activity In Vitro Experimental Protocol
(§2) The reaction was then stopped by addition of citric acid. Radioactivity indicates the production of 5-HT and PEA metabolites formed as a result of MAO activity.
(§3) A mixture of toluene: ethyl acetate (1:1) was added to the reaction and mixed for 10 minutes, followed by 5 minutes of centrifugation at 1760 g. The upper phase was taken for radioactive determination by liquid scintillation spectrometry.

MAO-B [2] = target: T2, MAO-B (Rattus norvegicus, UniProt P19643); test: Inhibition of MAO activity in vitro (PEA as substrate); assay type: biochemical
T2 construct: The MAO enzyme source was a homogenate of rat brain in 0.3 M sucrose 1:20 w/v; from tissue; host or cells: rat brain homogenate
T2 sequence (P19643 1-520): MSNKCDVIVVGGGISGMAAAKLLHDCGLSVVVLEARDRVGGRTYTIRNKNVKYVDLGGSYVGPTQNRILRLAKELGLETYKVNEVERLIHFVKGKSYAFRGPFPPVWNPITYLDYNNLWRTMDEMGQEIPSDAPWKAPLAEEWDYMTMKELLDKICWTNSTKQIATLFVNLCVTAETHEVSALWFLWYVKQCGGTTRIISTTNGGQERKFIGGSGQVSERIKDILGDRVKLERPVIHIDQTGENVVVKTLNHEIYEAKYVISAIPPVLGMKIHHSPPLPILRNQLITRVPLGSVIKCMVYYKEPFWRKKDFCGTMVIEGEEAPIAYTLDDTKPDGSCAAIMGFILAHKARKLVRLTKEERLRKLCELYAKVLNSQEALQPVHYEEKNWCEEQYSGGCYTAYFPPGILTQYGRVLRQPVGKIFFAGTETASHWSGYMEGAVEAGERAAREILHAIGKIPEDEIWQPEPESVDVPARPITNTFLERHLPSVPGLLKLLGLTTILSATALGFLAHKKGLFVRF
Procedure: as §1, §2, §3

MAO-A [3] = target: T1, MAO-A; test: Inhibition of MAO activity in vivo, MAO-A
Procedure: (§4) Inhibition of MAO Activity In Vivo: Chronic Treatment Experimental Protocol
(§5) Rats were treated with the test compounds (Table 5) at several dose levels by oral administration, one dose daily for 7-21 days, and decapitated 2 hours after the last dose. The activities of MAO-A and MAO-B were determined in the brain, liver and intestine as described in the previous example. Inhibition of MAO activity was calculated by dividing MAO activity in the treated rats by MAO activity in the control rats (saline treated, MAO activity in these rats was taken as 100%).
as §3

MAO-B [4] = target: T2, MAO-B; test: Inhibition of MAO activity in vivo, MAO-B
Procedure: as §4, §5, §3

MAO-A [5] = target: T1, MAO-A; test: Inhibition of MAO activity in vivo, MAO-A; conditions: tissue not stated; for inhibition at 10 µmol/kg: 10 μmol/kg (3.2-4 mg/kg), acute
MAO-B [6] = target: T2, MAO-B; test: Inhibition of MAO activity in vivo, MAO-B; conditions: tissue not stated; for inhibition at 10 µmol/kg: 10 μmol/kg (3.2-4 mg/kg), acute
[7] = rat brain homogenate, 60 min pre-incubation at 37° C., 14C 5-HT substrate, read-out: In vitro IC50 A
[8] = rat brain homogenate, 60 min pre-incubation at 37° C., 14C PEA substrate, read-out: In vitro IC50 B
[9] = oral, 1 mg/kg (2.9 μmol/kg), 7 days, tissue not stated
[10] = oral, 15 mg/kg (44 μmol/kg), 7 days, tissue not stated
[11] = oral, 150 μmol/kg, 7 days, tissue not stated

Molecule	IC50 (MAO-A [1]; [7])	IC50 (MAO-B [2]; [8])	also measured
C#CCN(C)C1CCc2cc(OC(=O)c3ccccc3)c(OC(=O)c3ccccc3)cc21 (racemic) [Cmpd 137, 5,6-Di-O-Benzoyl-1-(Methyl-Prop-2-Ynyl-Amino)-Indan HCl]	1400 nM	21 µM	–
C#CCN[C@@H]1CCc2ccc(O)cc21 [Cmpd 101, (R)-3-prop-2-ynylamino-5-indanol mesylate]	–	–	inhibition at 5 mg/kg (MAO-A [3]; po, read-out: % inhibition A): 35%; inhibition at 25 mg/kg (MAO-A [3]; po, read-out: % inhibition A): 57%; inhibition at 5 mg/kg (MAO-B [4]; po, read-out: % inhibition B): 47%; inhibition at 25 mg/kg (MAO-B [4]; po, read-out: % inhibition B): 65%
C#CCN(C)C1CCc2c(OC(=O)c3c(OC)cccc3OC)cccc21 (racemic) [Cmpd 121]	340 nM	3 µM	–
C#CCN(C)[C@@H]1CCc2ccc(OC(=O)N(C)CC)cc21 [Cmpd 140]	–	12 µM	IC50 (MAO-A [1]): 4300 nM; inhibition at 2 µmol/kg (MAO-A [3]; po, read-out: % inhibition A): 6%; inhibition at 10 µmol/kg (MAO-A [3]; po, read-out: % inhibition A): 51%; inhibition at 50 µmol/kg (MAO-A [3]; po, read-out: % inhibition A): 65%; inhibition at 2 µmol/kg (MAO-B [4]; po, read-out: % inhibition B): 10%; inhibition at 10 µmol/kg (MAO-B [4]; po, read-out: % inhibition B): 30%; inhibition at 50 µmol/kg (MAO-B [4]; po, read-out: % inhibition B): 73%
C#CCN(C)[C@@H]1CCc2ccc(O)cc21 [Cmpd 114, (R)3-(methyl-prop-2-ynylamino)-5-indanol]	10 nM	0.03 µM	–
C#CCN(C)C1CCc2cccc(O)c21 (racemic) [Cmpd 118, 3-(methyl-prop-2-ynylamino)-4-indanol]	70 nM	–	IC50 (MAO-B [2]): 0.05 µM
C#CCN(C)[C@@H]1CCc2ccc(OC(=O)CCCC)cc21 [Cmpd 126]	58 nM	0.13 µM	–
C#CCN(C)C1CCc2cccc(OC(=O)N(C)CC)c21 (centres unmarked) [Cmpd 141]	65000 nM	100 µM	–
C#CCN(C)[C@@H]1CCc2ccc(OC(=O)c3ccccc3C)cc21 [Cmpd 132]	1100 nM	9.9 µM	inhibition at 10 µmol/kg (MAO-A [5]): 41%; inhibition at 10 µmol/kg (MAO-B [6]): 37%
C#CCN(C)C1CCc2c(OC(=O)N(C)CC)cccc21 (centres unmarked) [Cmpd 142]	27 nM	4 µM	–
C#CCN(C)C1CCc2ccc(OC(=O)N(C)CCC)cc21 (centres unmarked) [Cmpd 143]	5600 nM	9.2 µM	–
C#CCN(C)C1CCc2c(O)cccc21 (racemic) [Cmpd 117, 1-(methyl-prop-2-ynylamino)-4-indanol]	8.3 nM	0.07 µM	–
C#CCN(C)C1CCc2ccc(O)cc21 (racemic) [Cmpd 112, 3-(Methyl-Prop-2-Ynyl Amino)-5-Indanol]	30 nM	0.01 µM	–
C#CCN(C)[C@@H]1CCc2ccc(OC(C)=O)cc21 [Cmpd 116]	35 nM	0.0056 µM	–
C#CCNC1CCc2ccc(OC(=O)N(C)CC)cc2C1 (centres unmarked) [Cmpd 149]	2000 nM	100 µM	–
C#CCN(C)C1CCc2c(OC(=O)c3ccccc3)cccc21 (racemic) [Cmpd 120]	130 nM	0.91 µM	–

Molecule	IC50 (MAO-A [1]; [7])	IC50 (MAO-B [2]; [8])	also measured
C#CCN(C)C1CCc2ccc(O)cc2C1 (racemic) [Cmpd 123, 7-(methyl-prop-2-ynylamino)-2-tetralinol]	410 nM	0.48 µM	–
C#CCN(C)C1CCc2cccc(OC(=O)N(C)CCC)c21 (centres unmarked) [Cmpd 144]	71000 nM	63 µM	–
(S)-3-prop-2-ynylamino-5-indanol mesylate [Cmpd 100]	500000 nM	300 µM	–
C#CCN(C)[C@@H]1CCc2ccc(OC(=O)c3ccccc3)cc21 [Cmpd 128]	200 nM	1 µM	inhibition at 1 mg/kg (MAO-A [3]; [9]): 87%; inhibition at 5 mg/kg (MAO-A [3]; oral, 5 mg/kg (15 μmol/kg), 7 days, tissue not stated, read-out: % inhibition A): 95%; inhibition at 15 mg/kg (MAO-A [3]; [10]): 98%; inhibition at 1 mg/kg (MAO-B [4]; [9]): 77%; inhibition at 5 mg/kg (MAO-B [4]; oral, 5 mg/kg (15 μmol/kg), 7 days, tissue not stated, read-out: % inhibition B): 91%; inhibition at 15 mg/kg (MAO-B [4]; [10]): 91%
C#CCN(C)[C@@H]1CCc2ccc(OC(=O)C(C)(C)C)cc21 [Cmpd 130]	560 nM	2.5 µM	inhibition at 10 µmol/kg (MAO-A [5]): 24%; inhibition at 10 µmol/kg (MAO-B [6]): 22%
C#CCN(C)[C@H]1CCc2ccc(OC(=O)c3ccccc3)cc21 [Cmpd 127, Benzoic Acid (S)-3-(Methyl-Prop-2-Ynyl-Amino)-Indan-5-Yl Ester HCl]	3800 nM	5.6 µM	–
C#CCN(C)C1CCc2cc(O)c(O)cc2C1 (centres unmarked) [Cmpd 139, 6-(methyl-prop-2-ynylamino)-2,3-tetralindiol]	4500 nM	41 µM	–
C#CCN(C)[C@H]1CCc2ccc(O)cc21 [Cmpd 113, (S)3-(methyl-prop-2-ynylamino)-5-indanol]	12000 nM	23 µM	–
C#CCN(C)C1CCc2c(OC(C)=O)cccc21 (racemic) [Cmpd 119]	18 nM	0.11 µM	–
C#CCN[C@@H]1CCc2ccc(OC(=O)N(C)CC)cc21 [Cmpd 146]	–	–	IC50 (MAO-A [1]; read-out: In vitro IC50 A): 300000 nM; inhibition at 50 µmol/kg (MAO-A [3]; oral, 50 μmol/kg, 7 days, tissue not stated, read-out: % inhibition A): 46%; inhibition at 150 µmol/kg (MAO-A [3]; [11]): 74%; inhibition at 50 µmol/kg (MAO-B [4]; oral, 50 μmol/kg, 7 days, tissue not stated, read-out: % inhibition B): 52%; inhibition at 150 µmol/kg (MAO-B [4]; [11]): 87%; inhibition at 100 µmol/kg (MAO-A [5]; oral, 100 μmol/kg, 5 days): 56%; inhibition at 100 µmol/kg (MAO-B [6]; oral, 100 μmol/kg, 5 days): 74%
C#CCN(C)[C@H]1CCc2ccc(OC(=O)C(C)(C)C)cc21 [Cmpd 129]	2500 nM	17 µM	–
C#CCN(C)C1CCc2cc(OC(=O)c3ccccc3)c(OC(=O)c3ccccc3)cc2C1 (racemic) [Cmpd 138, 6,7-di-O-benzoyl-2-(methyl-prop-2-ynylamino)-tetralin HCl]	1200 nM	0.4 µM	–
C#CCN(C)[C@@H]1CCc2ccc(OC(=O)c3c(OC)cccc3OC)cc21 [Cmpd 134]	1200 nM	5.9 µM	inhibition at 10 µmol/kg (MAO-A [5]): 9%; inhibition at 10 µmol/kg (MAO-B [6]): 0%
C#CCN(C)C1CCc2ccc(OC(=O)c3ccccc3)cc2C1 (racemic) [Cmpd 124, 7-O-benzoyl-2-(methyl-prop-2-ynylamino)-tetralin Hcl]	1200 nM	1.2 µM	–
C#CCN[C@@H]1CCc2ccc(OC(=O)N(C)CC)cc21 [Cmpd 147]	550000 nM	> 1000 µM	–
C#CCNC1CCCc2ccc(OC(=O)N(C)CC)cc21 (centres unmarked) [Cmpd 148]	500000 nM	100 µM	–
